# In ChEMBL document CHEMBL3739277, “Design, synthesis, and antibacterial evaluation of novel azolylthioether quinolones as MRSA DNA intercalators” (2015):
# Test system: Saccharomyces cerevisiae
# Assay: Antifungal activity against Saccharomyces cerevisiae ATCC9763 assessed as growth inhibition incubated at 35 degC for 24 hrs by micro broth dilution method
# Assay type: functional
# Details: ATCC9763, 24 h
row,SMILES,MIC80
1,Sc1ncn(Cc2ccc(Cl)c(Cl)c2)n1,512 µg/mL
2,O=C(O)c1cn(C2CC2)c2cc(N3CCN(CC(O)Cn4cnc(S)n4)CC3)c(F)cc2c1=O (centres undefined),64 µg/mL
3,CCn1cc(C(=O)O)c(=O)c2cc(F)c(N3CCN(CC(O)CSc4nnnn4C)CC3)cc21 (centres undefined),128 µg/mL

# Test system: Cyberlindnera jadinii
# Assay: Antifungal activity against Candida utilis ATCC9950 assessed as growth inhibition incubated at 35 degC for 24 hrs by micro broth dilution method
# Assay type: functional
# Details: Williopsis jadinii, ATCC9950, 24 h
row,SMILES,MIC80
1,Sc1ncn(Cc2ccc(Cl)c(Cl)c2)n1,512 µg/mL
2,O=C(O)c1cn(C2CC2)c2cc(N3CCN(CC(O)Cn4cnc(S)n4)CC3)c(F)cc2c1=O (centres undefined),128 µg/mL
3,CCn1cc(C(=O)O)c(=O)c2cc(F)c(N3CCN(CC(O)CSc4nnnn4C)CC3)cc21 (centres undefined),64 µg/mL

# Test system: Candida albicans
# Assay: Antifungal activity against Candida albicans ATCC10231 assessed as growth inhibition incubated at 35 degC for 24 hrs by micro broth dilution method
# Assay type: functional
# Details: ATCC10231, 24 h
row,SMILES,MIC80
1,Sc1ncn(Cc2ccc(Cl)c(Cl)c2)n1,512 µg/mL
2,O=C(O)c1cn(C2CC2)c2cc(N3CCN(CC(O)Cn4cnc(S)n4)CC3)c(F)cc2c1=O (centres undefined),8 µg/mL
3,CCn1cc(C(=O)O)c(=O)c2cc(F)c(N3CCN(CC(O)CSc4nnnn4C)CC3)cc21 (centres undefined),32 µg/mL

# Test system: not listed separately
# Assay: Antibacterial activity against Eberthella typhosa ATCC14028 assessed as growth inhibition incubated at 37 degC for 24 hrs by micro broth dilution method
# Assay type: functional
# Details: ATCC14028, 24 h
row,SMILES,MIC
1,Sc1ncn(Cc2ccc(Cl)c(Cl)c2)n1,512 µg/mL
2,O=C(O)c1cn(C2CC2)c2cc(N3CCN(CC(O)Cn4cnc(S)n4)CC3)c(F)cc2c1=O (centres undefined),1 µg/mL
3,CCn1cc(C(=O)O)c(=O)c2cc(F)c(N3CCN(CC(O)CSc4nnnn4C)CC3)cc21 (centres undefined),32 µg/mL

# Test system: not listed separately
# Assay: Antifungal activity against Candida mycoderma ATCC9888 assessed as growth inhibition incubated at 35 degC for 24 hrs by micro broth dilution method
# Assay type: functional
# Details: Kregervanrija fluxuum
row,SMILES,MIC80
1,Sc1ncn(Cc2ccc(Cl)c(Cl)c2)n1,256 µg/mL
2,O=C(O)c1cn(C2CC2)c2cc(N3CCN(CC(O)Cn4cnc(S)n4)CC3)c(F)cc2c1=O (centres undefined),32 µg/mL
3,CCn1cc(C(=O)O)c(=O)c2cc(F)c(N3CCN(CC(O)CSc4nnnn4C)CC3)cc21 (centres undefined),64 µg/mL

# Test system: Aspergillus flavus
# Assay: Antifungal activity against Aspergillus flavus ATCC204304 assessed as growth inhibition incubated at 35 degC for 24 hrs by micro broth dilution method
# Assay type: functional
# Details: ATCC204304, 24 h
row,SMILES,MIC80
1,Sc1ncn(Cc2ccc(Cl)c(Cl)c2)n1,512 µg/mL
2,O=C(O)c1cn(C2CC2)c2cc(N3CCN(CC(O)Cn4cnc(S)n4)CC3)c(F)cc2c1=O (centres undefined),64 µg/mL
3,CCn1cc(C(=O)O)c(=O)c2cc(F)c(N3CCN(CC(O)CSc4nnnn4C)CC3)cc21 (centres undefined),64 µg/mL

# Test system: Escherichia coli
# Assay: Antibacterial activity against Escherichia coli JM109 assessed as growth inhibition incubated at 37 degC for 24 hrs by micro broth dilution method
# Assay type: functional
# Details: JM109, 24 h
row,SMILES,MIC
1,Sc1ncn(Cc2ccc(Cl)c(Cl)c2)n1,256 µg/mL
2,O=C(O)c1cn(C2CC2)c2cc(N3CCN(CC(O)Cn4cnc(S)n4)CC3)c(F)cc2c1=O (centres undefined),8 µg/mL
3,CCn1cc(C(=O)O)c(=O)c2cc(F)c(N3CCN(CC(O)CSc4nnnn4C)CC3)cc21 (centres undefined),8 µg/mL

# Test system: Staphylococcus aureus
# Assay: Antibacterial activity against methicillin resistant Staphylococcus aureus N315 assessed as growth inhibition incubated at 37 degC for 24 hrs by micro broth dilution method
# Assay type: functional
# Details: N315, 24 h
row,SMILES,MIC
1,Sc1ncn(Cc2ccc(Cl)c(Cl)c2)n1,128 µg/mL
2,O=C(O)c1cn(C2CC2)c2cc(N3CCN(CC(O)Cn4cnc(S)n4)CC3)c(F)cc2c1=O (centres undefined),16 µg/mL
3,CCn1cc(C(=O)O)c(=O)c2cc(F)c(N3CCN(CC(O)CSc4nnnn4C)CC3)cc21 (centres undefined),128 µg/mL

# Test system: Staphylococcus aureus
# Assay: Antibacterial activity against Staphylococcus aureus ATCC25923 assessed as growth inhibition incubated at 37 degC for 24 hrs by micro broth dilution method
# Assay type: functional
# Details: ATCC25923, 24 h
row,SMILES,MIC
1,Sc1ncn(Cc2ccc(Cl)c(Cl)c2)n1,256 µg/mL
2,O=C(O)c1cn(C2CC2)c2cc(N3CCN(CC(O)Cn4cnc(S)n4)CC3)c(F)cc2c1=O (centres undefined),2 µg/mL
3,CCn1cc(C(=O)O)c(=O)c2cc(F)c(N3CCN(CC(O)CSc4nnnn4C)CC3)cc21 (centres undefined),128 µg/mL

# Test system: Micrococcus luteus
# Assay: Antibacterial activity against Micrococcus luteus ATCC4698 assessed as growth inhibition incubated at 37 degC for 24 hrs by micro broth dilution method
# Assay type: functional
# Details: ATCC4698, 24 h
row,SMILES,MIC
1,Sc1ncn(Cc2ccc(Cl)c(Cl)c2)n1,256 µg/mL
2,O=C(O)c1cn(C2CC2)c2cc(N3CCN(CC(O)Cn4cnc(S)n4)CC3)c(F)cc2c1=O (centres undefined),16 µg/mL
3,CCn1cc(C(=O)O)c(=O)c2cc(F)c(N3CCN(CC(O)CSc4nnnn4C)CC3)cc21 (centres undefined),64 µg/mL

# Test system: Bacillus subtilis
# Assay: Antibacterial activity against Bacillus subtilis ATCC6633 assessed as growth inhibition incubated at 37 degC for 24 hrs by micro broth dilution method
# Assay type: functional
# Details: ATCC6633, 24 h
row,SMILES,MIC
1,Sc1ncn(Cc2ccc(Cl)c(Cl)c2)n1,512 µg/mL
2,O=C(O)c1cn(C2CC2)c2cc(N3CCN(CC(O)Cn4cnc(S)n4)CC3)c(F)cc2c1=O (centres undefined),4 µg/mL
3,CCn1cc(C(=O)O)c(=O)c2cc(F)c(N3CCN(CC(O)CSc4nnnn4C)CC3)cc21 (centres undefined),32 µg/mL

# Test system: Pseudomonas aeruginosa
# Assay: Antibacterial activity against Pseudomonas aeruginosa ATCC27853 assessed as growth inhibition incubated at 37 degC for 24 hrs by micro broth dilution method
# Assay type: functional
# Details: ATCC27853, 24 h
row,SMILES,MIC
1,Sc1ncn(Cc2ccc(Cl)c(Cl)c2)n1,512 µg/mL
2,O=C(O)c1cn(C2CC2)c2cc(N3CCN(CC(O)Cn4cnc(S)n4)CC3)c(F)cc2c1=O (centres undefined),4 µg/mL
3,CCn1cc(C(=O)O)c(=O)c2cc(F)c(N3CCN(CC(O)CSc4nnnn4C)CC3)cc21 (centres undefined),128 µg/mL

# Test system: not listed separately
# Assay: Antibacterial activity against Bacillus proteus ATCC13315 assessed as growth inhibition incubated at 37 degC for 24 hrs by micro broth dilution method
# Assay type: functional
# Details: ATCC13315, 24 h
row,SMILES,MIC
1,Sc1ncn(Cc2ccc(Cl)c(Cl)c2)n1,512 µg/mL
2,O=C(O)c1cn(C2CC2)c2cc(N3CCN(CC(O)Cn4cnc(S)n4)CC3)c(F)cc2c1=O (centres undefined),4 µg/mL
3,CCn1cc(C(=O)O)c(=O)c2cc(F)c(N3CCN(CC(O)CSc4nnnn4C)CC3)cc21 (centres undefined),128 µg/mL
